In one test the test system is DmGPCR9. Description: calcium mobilization assay (FLIPR). The class given is cell-based, Drosophila melanogaster. As to conditions: tested at 10 μM. As for the experimental part:
(§1) Changes in intracellular calcium levels are another recognized indicator of G protein-coupled receptor activity, and such assays can be employed to screen for modulators of DmGPCR activity. For example, CHO cells stably transfected with a DmGPCR expression vector are plated at a density of 4×10^4 cells/well in Packard black-walled, 96-well plates specially designed to discriminate fluorescence signals emanating from the various wells on the plate. The cells are incubated for 60 minutes at 37° C. in modified Dulbecco's PBS (D-PBS) containing 36 mg/L pyruvate and 1 g/L glucose and one of four calcium indicator dyes (Fluo-3™ AM, Fluo-4™ AM, Calcium Green™-1 AM, or Oregon Green™ 488 BAPTA-1 AM), each at a concentration of 4 μM. […]
(§2) A calcium response is initiated by the addition of one or more candidate receptor agonist compounds, calcium ionophore A23187 (10 μM; positive control), or ATP (4 μM; positive control). Fluorescence is measured by Molecular Device's FLIPR with an argon laser (excitation at 488 nm). […] Basal fluorescence of cells was measured for 20 seconds prior to addition of candidate agonist, ATP, or A23187, and the basal fluorescence level was subtracted from the response signal. The calcium signal is measured for approximately 200 seconds, taking readings every two seconds. […]
(In general: Calcium flux is commonly read through the fluorescence of an indicator in the cells.)

The subject of test [1] is CHO cells stably transfected with a DmGPCR expression vector. The experiment in a line: Intracellular calcium measurement using FLIPR, positive controls. It counts as cell-based, Chinese hamster. As to conditions: positive controls: A23187 10 μM, ATP 4 μM. As for the experimental part:
as §1, §2

The next test concerns DmGPCR1. Description: Ca+2 mobilization assay (FLIPR), transfected CHO cells. It counts as cell-based, Drosophila melanogaster. As for the experimental part:
as §1, §2

A further test has as its system DmGPCR7. The experiment in a line: FLIPR analysis of intracellular calcium release. The class given is cell-based, Drosophila melanogaster. As to conditions: DmGPCR7 in CHO-10001A cells; peptides with C-terminal HSWGa; given in words. The method, then:
(§3) Changes in intracellular calcium levels are another recognized indicator of G protein-coupled receptor activity, and such assays can be employed to screen for modulators of DmGPCR activity. For example, CHO cells stably transfected with a DmGPCR expression vector are plated at a density of 4×10^4 cells/well in Packard black-walled, 96-well plates specially designed to discriminate fluorescence signals emanating from the various wells on the plate. The cells are incubated for 60 minutes at 37° C. in modified Dulbecco's PBS (D-PBS) containing 36 mg/L pyruvate and 1 g/L glucose and one of four calcium indicator dyes (Fluo-3™ AM, Fluo-4™ AM, Calcium Green™-1 AM, or Oregon Green™ 488 BAPTA-1 AM), each at a concentration of 4 μM. Plates are washed once with modified D-PBS and incubated for 10 minutes at 37° C. to remove residual dye from the cellular membrane. In addition, a series of washes with modified D-PBS is performed immediately prior to activation of the calcium response.
(§4) A calcium response is initiated by the addition of one or more candidate receptor agonist compounds, calcium ionophore A23187 (10 μM; positive control), or ATP (4 μM; positive control). Fluorescence is measured by Molecular Device's FLIPR with an argon laser (excitation at 488 nm). (See, e.g., Kuntzweiler et al., Drug Dev. Res., 1998, 44(1), 14-20). The F-stop for the detector camera was set at 2.5, and the length of exposure was 0.4 milliseconds. Basal fluorescence of cells was measured for 20 seconds prior to addition of candidate agonist, ATP, or A23187, and the basal fluorescence level was subtracted from the response signal. The calcium signal is measured for approximately 200 seconds, taking readings every two seconds. Calcium ionophore A23187 and ATP increase the calcium signal 200% above baseline levels. In general, activated GPCRs increase the calcium signal approximately 10-15% above baseline signal.
(§5) Originally, we have chosen the GTPγS assay as a functional assay because agonist-driven stimulation of GTPγS reflects early events in the DmGPCR activation cascade, regardless of further activation pathways of various down-stream signaling events. This appears especially useful for the assessment of possible activation of orphan DmGPCRs with unknown functions and unknown signaling pathways. The GTPγS assay was carried out with membranes prepared from CHO cells transiently transfected with DNA encoding Drosophila GPCRs using a 96-well MultiScreen G/FB filter plates and a MultiScreen vacuum manifold (Millipore) for filtration. Since the GTPγS assay is known to poorly recognize GPCRs coupled to the Gq class of G-proteins, a Ca^+2 mobilization assay based on a FLIPR readout was used as well to evaluate Gq-coupled orphan GPCRs in CHO cells transiently transfected with DNA encoding Drosophila GPCRs.

Test [2] has as its target T1, DmGPCR5 (Drosophila melanogaster, UniProt P30975, L70Q). The experiment in a line: cell-based.
Description: The photoprotein luciferase provides another useful tool for assaying for modulators of DmGPCR activity. Cells (e.g., CHO cells or COS7 cells) are transiently co-transfected with both a DmGPCR expression construct (e.g., DmGPCR in pzeoSV2) and a reporter construct which includes a gene for the luciferase protein downstream from a transcription factor binding site, such as the cAMP-response element (CRE), AP-1, or NF-kappa B. Agonist binding to receptors coupled to the Gs subtype of G proteins leads to increases in cAMP, thereby activating the CRE transcription factor and resulting in expression of the luciferase gene. […] Luciferase activity may be quantitatively measured using, e.g., luciferase assay reagents that are commercially available from Promega (Madison, Wis.).
In one exemplary assay, CHO cells are plated in 24-well culture dishes at a density of 100,000 cells/well one day prior to transfection and cultured at 37° C. in MEM (Gibco/BRL) supplemented with 10% fetal bovine serum, 2 mM glutamine, 10 μg/ml penicillin, and 10 μg/ml streptomycin. […] After incubation for 15 minutes at room temperature, 15 μl of the lysate is mixed with 50 μl of substrate solution (Promega) in an opaque-white, 96-well plate, and the luminescence is read immediately on a Wallace model 1450 MicroBeta scintillation and luminescence counter (Wallace Instruments, Gaithersburg, Md.). […]
The target of test [3] is T1, DmGPCR5. The experiment in a line: biochemical. Further details: expressed in transfected cells; host or cells: CHO-1000A (so in the source), transient. As to conditions: for EC50, stimulation of GTPγS binding: DmGPCR5, given in words. As for the experimental part:
(§6) The transfected cells were washed once with ice-cold Dulbecco's phosphate buffered saline (PBS), 5 ml per 10 cm plate, and scraped into 5 ml of the same buffer. Cell suspensions from multiple plates were combined and centrifuged at 500×g for 10 min at 4° C. The cell pellet was reconstituted in ice-cold TEE (25 mM TRIS, 5 mM EGTA, 5 mM EDTA). Convenient aliquots were snap-frozen in liquid nitrogen and stored at −70° C. After thawing, the cells were homogenized and centrifuged at 4° C., 500×g for 5 minutes to pellet nuclei and unbroken cells. The supernatant was centrifuged at 47,000×g for 30 minutes at 4° C. The membrane pellet was washed once with TEE, resuspended in 20 mM HEPES, pH 7.4, 100 mM NaCl, 10 mM MgCl2, 1 mM EDTA (assay buffer), aliquoted and frozen in liquid nitrogen. Membrane aliquots were stored at −70° C. Membrane protein concentration was determined using the BCA Protein Assay Reagent from Pierce (Rockford, Ill.) and BSA as standard.
Initially, reaction mixtures were prepared in 96-well polypropylene plates (Nunc). In each well, peptide aqueous solution (20 μl, 10×), or water controls (20 μl), 18.2 μM GDP in assay buffer (0.11 ml, 10 μM final), and membranes suspended in assay buffer (50 μl, 10 μg membrane protein) were mixed and placed on ice. […] Then the membranes were washed 3 times with 0.25 ml ice-cold wash buffer/well (10 mM HEPES, 10 mM MgCl2, pH 7.4) and vacuum filtered. […] Each treatment was carried out in triplicates.
Ligand-induced stimulation of [^35S]GTPγS binding was expressed as fold increase over the basal activity with no ligand added. Each treatment was run either in triplicate, or, on occasion, in duplicate, and the binding (cpm) was calculated as means +/− standard deviations. Dose-response curves for the receptor/ligand systems were analyzed using a non-linear least square SAS model, y=Bmax X/(Kd+X). Other dose-response curves were analyzed using Prism (GraphPad Software, Inc. San Diego, Calif.) and the following equation y=Bottom+(Top−Bottom)/(1+10^LogEC50-X).
as §5
A general note: GTPγS resists hydrolysis and so accumulates on activated G proteins.

For test [4], the target named is DmGPCR8. The experiment in a line: [35S]GTPγS binding assay, dose response. It counts as biochemical, Drosophila melanogaster. As to conditions: DmGPCR8 in CHO-10001A cells; given in words. The method, then: as §6, with “The membrane pellet was washed once with TEE, resuspended in 20 mM HEPES, pH 7.4, 100 mM NaCl, 10 mM MgCl2, 1 mM EDTA (assay buffer), aliquoted and frozen in liquid nitrogen. Membrane aliquots were stored at −70° C.” left out, “standard. […]” for “standard.”
Ligand-induced stimulation of [^35S]GTPγS binding was expressed as fold increase over the basal activity with no ligand added. Each treatment was run either in triplicate, or, on occasion, in duplicate, and the binding (cpm) was calculated as means +/− standard deviations. Dose-response curves for the receptor/ligand systems were analyzed using a non-linear least square SAS model, y=Bmax X/(Kd+X). Other dose-response curves were analyzed using Prism (GraphPad Software, Inc. San Diego, Calif.) and the following equation y=Bottom+(Top−Bottom)/(1+10^LogEC50-X). […]

Another test deals with muscle contraction. As to conditions: cited from earlier work.
For test [5], the system named is DmGPCR8. Description: direct calcium mobilization assay (FLIPR). The class given is cell-based, Drosophila melanogaster. As to conditions: DmGPCR8 without chimeric G-protein. The method, then: as §1, §2
Test [6] deals with DmGPCR8 and chimeric G-proteins. Description: calcium mobilization (FLIPR) in CHO-10001A cells co-transfected with chimeric G-proteins. It counts as cell-based, Drosophila melanogaster. As to conditions: for EC50: read-out: EC50, calcium releasing activity. As for the experimental part: as §3, §4
as §5, with “The GTPγS assay was carried out with membranes prepared from CHO cells transiently transfected with DNA encoding Drosophila GPCRs using a 96-well MultiScreen G/FB filter plates and a MultiScreen vacuum manifold (Millipore) for filtration.” left out

Read-outs that look alike come from different tables or passages of the source. Residues, ends and D or L forms follow the SMILES beside them. No end group written: not given here.

As usually defined, the EC50 is the midpoint of the concentration-response curve.

T1 sequence (P30975 whole entry L70Q): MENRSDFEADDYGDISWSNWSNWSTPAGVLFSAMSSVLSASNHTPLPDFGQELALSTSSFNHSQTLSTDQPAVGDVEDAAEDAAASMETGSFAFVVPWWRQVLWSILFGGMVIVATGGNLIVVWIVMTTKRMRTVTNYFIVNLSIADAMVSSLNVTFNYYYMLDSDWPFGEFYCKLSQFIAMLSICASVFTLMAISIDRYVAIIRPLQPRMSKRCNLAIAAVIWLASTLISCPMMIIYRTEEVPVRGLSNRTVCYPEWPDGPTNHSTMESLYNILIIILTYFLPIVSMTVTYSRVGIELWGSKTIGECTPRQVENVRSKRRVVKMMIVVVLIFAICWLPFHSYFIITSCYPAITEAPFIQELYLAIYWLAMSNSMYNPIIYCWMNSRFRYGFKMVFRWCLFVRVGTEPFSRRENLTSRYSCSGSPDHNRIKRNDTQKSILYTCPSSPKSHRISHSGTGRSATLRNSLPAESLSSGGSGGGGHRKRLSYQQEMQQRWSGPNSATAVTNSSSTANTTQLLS
DmGPCR9, sequence (as listed by the source): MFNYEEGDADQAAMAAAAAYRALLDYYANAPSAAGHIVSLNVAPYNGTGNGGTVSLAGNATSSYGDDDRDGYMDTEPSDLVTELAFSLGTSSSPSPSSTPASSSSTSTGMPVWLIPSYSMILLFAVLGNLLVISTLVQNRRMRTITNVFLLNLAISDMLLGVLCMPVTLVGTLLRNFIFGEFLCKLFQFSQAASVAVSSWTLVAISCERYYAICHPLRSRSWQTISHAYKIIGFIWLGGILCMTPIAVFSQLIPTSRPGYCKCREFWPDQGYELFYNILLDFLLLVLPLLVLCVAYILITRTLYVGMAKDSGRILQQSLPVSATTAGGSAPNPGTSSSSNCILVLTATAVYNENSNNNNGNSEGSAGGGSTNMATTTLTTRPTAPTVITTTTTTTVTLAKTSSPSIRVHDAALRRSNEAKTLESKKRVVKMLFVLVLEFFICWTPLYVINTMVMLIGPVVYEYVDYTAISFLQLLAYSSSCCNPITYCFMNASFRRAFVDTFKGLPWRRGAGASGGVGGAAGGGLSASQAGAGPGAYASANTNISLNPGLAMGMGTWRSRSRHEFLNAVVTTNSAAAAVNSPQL
DmGPCR7, sequence (as listed by the source): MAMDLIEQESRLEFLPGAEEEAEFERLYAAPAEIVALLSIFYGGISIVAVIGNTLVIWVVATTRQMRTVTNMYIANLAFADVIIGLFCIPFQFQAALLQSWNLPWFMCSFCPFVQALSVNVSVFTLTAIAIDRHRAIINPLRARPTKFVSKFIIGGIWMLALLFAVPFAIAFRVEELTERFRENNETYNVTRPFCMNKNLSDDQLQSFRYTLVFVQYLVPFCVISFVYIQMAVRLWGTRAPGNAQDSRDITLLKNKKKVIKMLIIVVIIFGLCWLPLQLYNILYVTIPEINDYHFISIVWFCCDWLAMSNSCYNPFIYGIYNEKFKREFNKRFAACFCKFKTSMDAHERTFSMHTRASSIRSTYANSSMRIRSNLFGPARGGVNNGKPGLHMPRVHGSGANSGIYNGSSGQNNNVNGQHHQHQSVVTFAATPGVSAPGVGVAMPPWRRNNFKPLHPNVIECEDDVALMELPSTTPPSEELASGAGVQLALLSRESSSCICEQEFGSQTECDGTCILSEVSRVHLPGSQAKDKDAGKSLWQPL

Turning to “FDDYGHLRF-NH2 [unsulfated counterpart of FDDY(SO3H)GHLRF-NH2]”, the calcium signal entry with DmGPCR9 is on record as “very weak calcium signal”. Turning to `CNc1ccc2oc(C[C@H]3O[C@@]4(CC[C@H]3C)O[C@H]([C@H](C)C(=O)c3ccc[nH]3)[C@H](C)C[C@H]4C)nc2c1C(=O)O` [A23187], the “increase of the calcium signal above baseline levels” value in [1] is reported as 200%.

Take `Nc1ncnc2c1ncn2[C@@H]1O[C@H](COP(=O)(O)OP(=O)(O)OP(=O)(O)O)[C@@H](O)[C@H]1O` [ATP]: the “increase of the calcium signal above baseline levels” value in [1] is recorded as 200%. As for `CC(C)C[C@H](NC(=O)[C@H](CCCNC(=N)N)NC(=O)[C@H](CC(C)C)NC(=O)[C@H](CCC(N)=O)NC(=O)[C@@H]1CCCN1C(=O)CNC(=O)[C@H](CCCNC(=N)N)NC(=O)[C@H](C)N)C(=O)N[C@@H](CCCNC(=N)N)C(=O)N[C@@H](Cc1ccccc1)C(N)=O` [ARGPQLRLRF-NH2] (H-ARGPQLRLRF-NH2; N-terminus assumed), the EC50 with DmGPCR1 lay in the range of 100 to 200 nM. As for QRFHSWG [DLK-2a, QRFHSWGa], in the test with DmGPCR7, the “EC50, intracellular calcium release (FLIPR)” value is on record as “picomoloar to subnanomolar range”. `CC(C)C[C@H](NC(=O)CNC(=O)[C@H](Cc1ccc(O)cc1)NC(=O)[C@H](Cc1ccccc1)NC(=O)[C@H](C)NC(=O)[C@H](CC(C)C)NC(=O)[C@@H]1CCCN1C(=O)[C@H](C)N)C(=O)N[C@@H](CCCNC(=N)N)C(N)=O` [DTK-2, APLAFYGLR-NH2] (H-APLAFYGLR-NH2) yielded an EC50 on DmGPCR5 [2] of 1060 nM. In addition, the “EC50, stimulation of GTPγS binding” value on DmGPCR5 [3] was “low micromolar range”. As for `CC[C@H](C)[C@@H]1NC(=O)[C@@H]2CCCN2C(=O)[C@H](CC(N)=O)NC(=O)[C@H](Cc2ccccc2)NC(=O)[C@H](Cc2ccc(O)cc2)NC(=O)[C@@H](NC(=O)[C@H](CCC(N)=O)NC(=O)[C@H](CCCNC(=N)N)NC(=O)[C@H](Cc2ccc(O)cc2)NC(=O)[C@H](CCCNC(=N)N)NC(=O)[C@@H](NC(=O)[C@@H]2CCC(=O)N2)C(C)C)CSSC[C@@H](C(=O)N[C@@H](Cc2ccccc2)C(=O)O)NC(=O)[C@H](CO)NC1=O` [DST-C, pGlu-Val-Arg-Tyr-Gln-Cys-Tyr-Phe-Asn-Pro-Ile-Ser-Cys-Phe-OH], the “EC50, GTPγS-binding responses” value at DmGPCR8 [4] is reported as “low nanomolar range”. The “inhibition of muscle contraction” value in the test with muscle contraction was “potent and prolonged inhibition”. In addition, in the test with DmGPCR8 [5], the “activity in direct calcium mobilization assay (FLIPR)” value is “did not show any activity”. Further, the EC50 in test [6] (co-transfected with DmGPCR8 and Gqi5) was around 30 nM; in test [6] (co-transfected with DmGPCR8 and Gqo5), around 30 nM; in test [6] (co-transfected with DmGPCR8 and Gqz5) it was 244 nM. Moreover, the calcium mobilization entry in [6] (co-transfected with DmGPCR8 and Gqs5) was “no calcium mobilization was observed”. Turning to `CC[C@H](C)[C@H](NC(=O)[C@H](Cc1ccccc1)NC(=O)[C@H](CO)NC(=O)[C@H](CO)NC(=O)[C@@H](NC(=O)[C@@H]1CCCN1C(=O)[C@H](C)N)[C@@H](C)O)C(=O)NCC(=O)N[C@@H](CCSC)C(=O)N[C@@H](CCCNC(=N)N)C(N)=O` [DTK-1, APTSSFIGMR-NH2] (H-APTSSFIGMR-NH2), the EC50 at DmGPCR5 [3] lay within 250 to 500 nM. Turning to APVNSFVGMR [DTK-4, APVNSFVGMR-NH2], at DmGPCR5 [3], the “EC50, stimulation of GTPγS binding” value is on record as “low micromolar range”.

(Values after patent US7364866B2, “Drosophila G protein coupled receptors, nucleic acids, and methods related to the same” (Pharmacia & Upjohn Company, priority 1999, dated 2008).)
